Results on 22 compounds are retold here after PubChem BioAssay AID434987 (Southern Research Specialized Biocontainment Screening …, 2010).

The assay deals with M. tuberculosis H37Rv growth inhibition with meropenem. In words: dose response, H37Rv, with and without meropenem (AID 434987).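 Further: growth over 7 days at 37 °C before Alamar Blue read on day 9.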
[1] abbreviates: M. tuberculosis H37Rv growth inhibition, measured here: IC50 without meropenem.
The mark [2] stands for this setting: M. tuberculosis H37Rv growth inhibition, measured here: IC90 without meropenem.
Setting [3] is: measured here: IC90 with meropenem.

The source made the active and inactive calls. How the calls were made is not given here.

What is called IC50 is the concentration that gives 50% inhibition. Usually IC90 stands for the concentration needed for an effect of 90%. On to `C=CCNC1=C(Cl)C(=O)N(c2cccc(Cl)c2Cl)C1=O`, for which the 50% inhibitory concentration (IC50) was 13.9 µM. This compound also registered an IC50 under setting [1] of 46.5 µM. Further, the IC90 under setting [2] was > 100 µM. Moreover, the IC90 under setting [3] worked out at 30.2 µM.
The matching figures for `Cc1ccc(SCCNC(=O)c2ccc(C)c([N+](=O)[O-])c2)cc1`: 49.6 µM (inactive), > 100 µM, > 100 µM and 54 µM.
The matching figures for `CCn1c(=O)n(CC)c2cc(N3CCCC3)c(NC(=O)c3cc(Br)ccc3OC)cc21`: > 100 µM (inactive), > 100 µM, > 100 µM and > 100 µM.
The matching figures for `O=C(Nc1nnc(-c2ccc3c(c2)OCCO3)o1)C1CCCCC1`: 16.3 µM, 55 µM, > 100 µM and > 100 µM.
For `CCc1cc2c(=O)nc3n(c2s1)Cc1ccccc1/C3=C(/O)c1ccc(F)cc1`, the IC50 was > 100 µM (inactive). For the same compound, under setting [1], the concentration for half-maximal inhibition (IC50) was > 100 µM. Besides, under setting [2], the IC90 was > 100 µM. Further, the 90% effect concentration (IC90) under setting [3] is > 100 µM.
For `O=C(N/N=C/c1cccc(Br)c1)c1ccc(Cn2cc(Br)cn2)o1`, the IC50 is 99.8 µM (inactive). Further, the IC50 under setting [1] is > 100 µM. Moreover, under setting [2], the IC90 was > 100 µM. Also, the IC90 under setting [3] is > 100 µM.
Turning to `COc1ccc([N+](=O)[O-])cc1C1NN=C(c2ccccc2O)S1` (stereo not drawn), the IC50 is > 100 µM (inactive). In addition, the IC50 under setting [1] was > 100 µM. Also, the IC90 under setting [2] is > 100 µM. Moreover, under setting [3], the IC90 was > 100 µM.
`CCOc1ccc(NC(=O)/C(C#N)=C/c2cn(CC(=O)O)c3ccccc23)cc1`: the IC50 is 95.9 µM (inactive). In addition, the IC50 under setting [1] is > 100 µM. Further, the IC90 under setting [2] is > 100 µM. In addition, the IC90 under setting [3] is > 100 µM.
For the compound `CC(C)NC(=S)NN=C1c2ccccc2-c2ccccc21`, the IC50 is 35.7 µM (inactive). Under setting [1], this compound displayed an IC50 of 58.2 µM. Also, under setting [2], the IC90 is > 100 µM. Besides, the 90% effect concentration (IC90) under setting [3] is > 100 µM.
As to `COc1ccc(Nc2cc(C(=O)NCc3ccco3)c3ccccc3n2)c(OC)c1`, the IC50 was > 100 µM (inactive). Further, under setting [1], the half-maximal inhibitory concentration (IC50) is > 100 µM. The IC90 under setting [2] was > 100 µM. Also, the 90% effect concentration (IC90) under setting [3] was > 100 µM.
Consider `O=C(/C=C/c1ccc2c(c1)OCO2)Nc1nc2ccccc2s1`, for which the IC50 was > 100 µM (inactive). Moreover, the IC50 under setting [1] is > 100 µM. Besides, under setting [2], the IC90 is > 100 µM. In addition, the IC90 under setting [3] is > 100 µM.
Consider `CC(C)Cn1c2c(c(O)c(C(=O)Nc3ccc(F)cc3)c1=O)CCCC2`, for which the IC50 was 82.2 µM (inactive). For the same compound, the IC50 under setting [1] is > 100 µM. Besides, under setting [2], the IC90 was > 100 µM. Also, the IC90 under setting [3] was > 100 µM.
In the case of `c1ccc(OCc2nnc(-c3ccccc3)o2)cc1`, the IC50 was 1.4 µM. The IC50 under setting [1] came to 80.4 µM. Moreover, under setting [2], the IC90 was > 100 µM. Besides, the IC90 under setting [3] was > 100 µM.
For the compound `O=C(COc1ccccc1)Nc1cccc(-c2nnc(-c3ccccc3)o2)c1`, the IC50 is > 100 µM (inactive). In addition, the IC50 under setting [1] is > 100 µM. For the same compound, the IC90 under setting [2] is > 100 µM. In addition, the IC90 under setting [3] was > 100 µM.
Consider `CCOCC(=O)N1CCN(c2ccc(F)cc2)CC1`, for which the IC50 was 33.8 µM. The IC50 under setting [1] is 84.1 µM. Also, under setting [2], the IC90 is > 100 µM. In addition, the IC90 under setting [3] was > 100 µM.
Regarding `O=C(N/N=C/c1ccc(OC(=O)c2ccc3c(c2)OCO3)cc1)c1cncc(Br)c1`, the IC50 was 5.48 µM. Moreover, the IC50 under setting [1] was determined as 45.7 µM. Also, under setting [2], the IC90 was > 100 µM. Also, the IC90 under setting [3] is 48.3 µM.
The matching figures for `O=C(Nc1ccc(N2CCCCC2)cc1)c1cc([N+](=O)[O-])cc([N+](=O)[O-])c1`: 43.9 µM (inactive), > 100 µM, > 100 µM and > 100 µM.
As to `FC(F)Oc1ccccc1C1CC(c2ccc(Br)s2)Nc2ncnn21` (stereo not drawn), the IC50 is > 100 µM (inactive). Moreover, under setting [1], the IC50 was > 100 µM. Under setting [2], the IC90 was > 100 µM. The IC90 under setting [3] is > 100 µM.
On to `O=C(c1cnn2c(C(F)(F)F)cc(-c3cccs3)nc12)N1CCN(C(c2ccccc2)c2ccccc2)CC1`, for which the IC50 was 26.6 µM (inactive). This compound came in with a half-inhibitory concentration (IC50) under setting [1] of 32.5 µM. Under setting [2], the IC90 was > 100 µM. For the same compound, the IC90 under setting [3] was > 100 µM.
Take `COc1ccc(-c2nn(-c3ccccc3)cc2C(=O)Nc2nccs2)cc1OC`: the IC50 is > 100 µM (inactive). Besides, the half-maximal inhibitory concentration (IC50) under setting [1] is > 100 µM. In addition, the IC90 under setting [2] was > 100 µM. The IC90 under setting [3] is > 100 µM.
With `Cc1ccc(-c2[nH][nH]c(=O)c(=O)c2N=Nc2ccccc2)cc1`, the 50% inhibitory concentration (IC50) was 4.12 µM. For the same compound, the IC50 under setting [1] stood at 51.7 µM. Also, the IC90 under setting [2] is > 100 µM. Under setting [3], this compound came in with an IC90 of 86.2 µM.
Taken in the same sequence, the figures for `O=C(CCCCCN1C(=O)c2cccc([N+](=O)[O-])c2C1=O)Nc1ccccc1F` were 10.2 µM, > 100 µM, > 100 µM and 44.1 µM.
